# Test system: patients with prior myocardial infarction (CARE study)
# Assay: CARE: association of SNPs with pravastatin treatment in cardiovascular events prevention (logistic regression, odds ratio pravastatin vs placebo by genotype; Table 8)
# Assay type: in vivo, human
# Details: All Patients; for Total Cardiovascular Disease Events, n/total (%) / Non-fatal MI (def & prob), n/total (%) / Fatal/Non-fatal MI (def & prob), n/total (%) / Fatal/Non-fatal Atherosclerotic CV Disease, n/total (%) / Hosp. for Cardiovascular Disease, n/total (%) / Total Mortality, n/total (%): Prava
# Description: In order to identify genetic markers associated with acute coronary events (e.g. MI, stroke, unstable angina, congestive heart failure, etc.) or response to statin treatment for the prevention of coronary events, samples from the Cholesterol and Recurrent Events (CARE) study (a randomized multicentral double-blinded trial on secondary prevention of acute coronary events with pravastatin) (Sacks et al., 1991, Am. J. Cardiol. 68: 1436-1446) were genotyped. A well-documented myocardial infarction (MI) was one of the enrollment criteria for entry into the CARE study. Patients were enrolled in the CARE trial from 80 participating study centers. […] Patients were randomized to receive either 40 mg of pravastatin once daily or a matching placebo. The primary endpoint of the trial was death from coronary heart disease and the median duration of follow-up was 5.0 years (range, 4.0 to 6.2 years). […] Secondary endpoints of other related cardiovascular or metabolic disease events, and changes in clinical variables were also recorded in pravastatin-treated and placebo groups. All individuals included in the study had signed a written informed consent form and the study protocol was approved by the respective Institutional Review Boards (IRBs).
# For genotyping SNPs in CARE patient samples, DNA was extracted from blood samples using conventional DNA extraction methods such as the QIA-amp kit from Qiagen. Genotypes were obtained on an ABI PRISM® 7900HT Sequence Detection PCR system (Applied Biosystems, Foster City, Calif.) by kinetic allele-specific PCR, similar to the method described by Germer et al. (Germer S., Holland M. J., Higuchi R. 2000, Genome Res. 10: 258-266).
# Statistical analysis for association of SNPs with pravastatin treatment in cardiovascular events prevention (Table 8) was carried out using an overall logistic regression model that included an intercept, a parameter for the effect of a genotype containing two rare alleles versus a genotype containing no rare alleles, a parameter for the effect of a genotype containing one rare allele versus a genotype containing no rare alleles, a parameter for the effect of use of pravastatin versus the use of placebo, and parameters for the interaction effects between SNP genotypes and pravastatin use. The test of the overall model is a chi-square test with two degrees of freedom for analyses containing all three genotypes, and one degree of freedom for analyses containing two genotypes.
# Effect sizes were estimated through odds ratios (pravastatin group versus placebo) for carriers of each genotype (groups of 0, 1, and 2 minor allele carriers). The effect was considered to be significant if p-value for testing whether any of the interactions between SNP genotypes and pravastatin use were <0.05. […] Odds ratios less than one indicate that the specific SNP allele has a protective effect and odds ratios greater than one indicate that the specific SNP allele has an adverse effect.
# [1] = HLA-DPB1 hCV25651174, Coronary Artery Bypass or Revascularization
# [2] = HLA-DPB1 hCV25651174, Fatal CHD/Definite Non-fatal MI
# [3] = HLA-DPB1 hCV25651174, Fatal/Non-fatal Atherosclerotic CV Disease
# [4] = HLA-DPB1 hCV25651174, Fatal/Non-fatal MI (def & prob)
# [5] = HLA-DPB1 hCV25651174, Hosp. for Cardiovascular Disease
# [6] = HLA-DPB1 hCV25651174, Non-fatal MI (def & prob)
# [7] = HLA-DPB1 hCV25651174, Total Cardiovascular Disease Events
# [8] = HLA-DPB1 hCV25651174, Total Coronary Heart Disease Events
# [9] = ICAM1 hCV8726337, Fatal/Non-fatal MI (def & prob)
# [10] = ICAM1 hCV8726337, Non-fatal MI (def & prob)
# [11] = ICAM3 hCV25473653, Fatal/Non-fatal Atherosclerotic CV Disease
# [12] = ICAM3 hCV25473653, Total Cardiovascular Disease Events
# [13] = IGF2R hCV2200985, Hosp. for Cardiovascular Disease
smiles,measurement,setting,value
CC[C@H](C)C(=O)O[C@H]1C[C@H](O)C=C2C=C[C@H](C)[C@H](CC[C@@H](O)C[C@@H](O)CC(=O)O)[C@H]21 [pravastatin],"Total Cardiovascular Disease Events, n/total (%)","HLA-DPB1 hCV25651174, 2 Rare Alleles, n/total 64/144",(44.4%)
same,"Prava vs. Placebo Odds Ratio, 0 Rare Alleles",[1],0.68
same,"Prava vs. Placebo Odds Ratio, 1 Rare Alleles",[1],0.58
same,"Prava vs. Placebo Odds Ratio, 2 Rare Alleles",[1],2.11
same,"Prava vs. Placebo Odds Ratio, 0 Rare Alleles",[2],0.57
same,"Prava vs. Placebo Odds Ratio, 1 Rare Alleles",[2],0.74
same,"Prava vs. Placebo Odds Ratio, 2 Rare Alleles",[2],1.77
same,"Prava vs. Placebo Odds Ratio, 0 Rare Alleles",[3],0.66
same,"Prava vs. Placebo Odds Ratio, 1 Rare Alleles",[3],0.78
same,"Prava vs. Placebo Odds Ratio, 2 Rare Alleles",[3],1.60
same,"Prava vs. Placebo Odds Ratio, 0 Rare Alleles",[4],0.54
same,"Prava vs. Placebo Odds Ratio, 1 Rare Alleles",[4],0.67
same,"Prava vs. Placebo Odds Ratio, 2 Rare Alleles",[4],1.97
same,"Prava vs. Placebo Odds Ratio, 0 Rare Alleles",[5],0.70
same,"Prava vs. Placebo Odds Ratio, 1 Rare Alleles",[5],0.70
same,"Prava vs. Placebo Odds Ratio, 2 Rare Alleles",[5],1.42
same,"Prava vs. Placebo Odds Ratio, 0 Rare Alleles",[6],0.59
same,"Prava vs. Placebo Odds Ratio, 1 Rare Alleles",[6],0.68
same,"Prava vs. Placebo Odds Ratio, 2 Rare Alleles",[6],2.23
same,"Prava vs. Placebo Odds Ratio, 0 Rare Alleles",[7],0.69
same,"Prava vs. Placebo Odds Ratio, 1 Rare Alleles",[7],0.71
same,"Prava vs. Placebo Odds Ratio, 2 Rare Alleles",[7],1.35
same,"Prava vs. Placebo Odds Ratio, 0 Rare Alleles",[8],0.69
same,"Prava vs. Placebo Odds Ratio, 1 Rare Alleles",[8],0.73
same,"Prava vs. Placebo Odds Ratio, 2 Rare Alleles",[8],1.81
same,"Non-fatal MI (def & prob), n/total (%)","ICAM1 hCV8726337, 0 Rare Alleles, n/total 28/495",(5.7%)
same,"Fatal/Non-fatal MI (def & prob), n/total (%)","ICAM1 hCV8726337, 0 Rare Alleles, n/total 31/495",(6.3%)
same,"Non-fatal MI (def & prob), n/total (%)","ICAM1 hCV8726337, 1 Rare Allele, n/total 76/736",(10.3%)
same,"Fatal/Non-fatal MI (def & prob), n/total (%)","ICAM1 hCV8726337, 1 Rare Allele, n/total 84/736",(11.4%)
same,"Non-fatal MI (def & prob), n/total (%)","ICAM1 hCV8726337, 2 Rare Alleles, n/total 30/282",(10.6%)
same,"Fatal/Non-fatal MI (def & prob), n/total (%)","ICAM1 hCV8726337, 2 Rare Alleles, n/total 31/282",(11.0%)
same,"Prava vs. Placebo Odds Ratio, 0 Rare Alleles",[9],0.39
same,"Prava vs. Placebo Odds Ratio, 1 Rare Alleles",[9],0.85
same,"Prava vs. Placebo Odds Ratio, 2 Rare Alleles",[9],0.77
same,"Prava vs. Placebo Odds Ratio, 0 Rare Alleles",[10],0.39
same,"Prava vs. Placebo Odds Ratio, 1 Rare Alleles",[10],0.83
same,"Prava vs. Placebo Odds Ratio, 2 Rare Alleles",[10],0.94
same,"Fatal/Non-fatal Atherosclerotic CV Disease, n/total (%)","ICAM3 hCV25473653, 0 Rare Alleles, n/total 299/924",(32.4%)
same,"Total Cardiovascular Disease Events, n/total (%)","ICAM3 hCV25473653, 0 Rare Alleles, n/total 376/924",(40.7%)
same,"Fatal/Non-fatal Atherosclerotic CV Disease, n/total (%)","ICAM3 hCV25473653, 1 Rare Allele, n/total 191/511",(37.4%)
same,"Total Cardiovascular Disease Events, n/total (%)","ICAM3 hCV25473653, 1 Rare Allele, n/total 230/511",(45.0%)
same,"Fatal/Non-fatal Atherosclerotic CV Disease, n/total (%)","ICAM3 hCV25473653, 2 Rare Alleles, n/total 14/70",(20.0%)
same,"Total Cardiovascular Disease Events, n/total (%)","ICAM3 hCV25473653, 2 Rare Alleles, n/total 19/70",(27.1%)
same,"Prava vs. Placebo Odds Ratio, 0 Rare Alleles",[11],0.71
same,"Prava vs. Placebo Odds Ratio, 1 Rare Alleles",[11],0.97
same,"Prava vs. Placebo Odds Ratio, 2 Rare Alleles",[11],0.37
same,"Prava vs. Placebo Odds Ratio, 0 Rare Alleles",[12],0.71
same,"Prava vs. Placebo Odds Ratio, 1 Rare Alleles",[12],0.93
same,"Prava vs. Placebo Odds Ratio, 2 Rare Alleles",[12],0.37
same,"Hosp. for Cardiovascular Disease, n/total (%)","IGF2R hCV2200985, 0 Rare Alleles, n/total 465/1175",(39.6%)
same,"Hosp. for Cardiovascular Disease, n/total (%)","IGF2R hCV2200985, 1 Rare Allele, n/total 137/316",(43.4%)
same,"Hosp. for Cardiovascular Disease, n/total (%)","IGF2R hCV2200985, 2 Rare Alleles, n/total 5/24",(20.8%)
same,"Prava vs. Placebo Odds Ratio, 0 Rare Alleles",[13],0.75
same,"Prava vs. Placebo Odds Ratio, 1 Rare Alleles",[13],0.88
same,"Prava vs. Placebo Odds Ratio, 2 Rare Alleles",[13],0.12
same,"Total Mortality, n/total (%)","IL1A hCV9546471, 0 Rare Alleles, n/total 52/759",(6.9%)
same,"Total Mortality, n/total (%)","IL1A hCV9546471, 1 Rare Allele, n/total 28/617",(4.5%)
same,"Total Mortality, n/total (%)","IL1A hCV9546471, 2 Rare Alleles, n/total 4/132",(3.0%)
same,"Prava vs. Placebo Odds Ratio, 0 Rare Alleles","IL1A hCV9546471, Total Mortality",1.40

# — patent US9932637B2, “Genetic polymorphisms associated with cardiovascular disorders and drug response, methods of detection and uses thereof” (CELERA CORPORATION, priority 2003, dated 2018)
